The source of these data is patent publication US10272083B2, “Methods of treating chronic lymphocytic leukemia and small lymphocytic leukemia using a BTK inhibitor” (Acerta Pharma B.V., priority 2014, dated 2019).

SMILES strings stand for the structures. “Also recorded” adds a separate entry of the source. Bounds are passed on as bounds.

The test system of series [1] is human platelet-mediated thrombus formation. Briefly: In vivo human thrombus formation, laser injury, VWF HA1 mice model. As to conditions: platelets preincubated with BTK inhibitor (0.1, 0.5 or 1 μM).
Series [2] deals with BCR activation markers CD69 and CD86. Briefly: In vivo potency: IgM-stimulated BCR activation markers by flow cytometry. As to conditions: mice gavaged, 3 h post-dose, BCR stimulated with IgM. Here is the method: Mice were gavaged at increasing drug concentration and sacrificed at one time point (3 h post-dose). BCR is stimulated with IgM and the expression of activation markers CD69 and CD86 are monitored by flow cytometry to determine EC50's.
CD86 and CD69 are cell surface proteins that are BCR activation markers. […] BCR was stimulated with IgM and the expression of activation marker CD69 and CD86 are monitored by flow cytometry and to determine EC50 values.
In general terms: Flow cytometry measures light scatter and fluorescence of single cells or particles in a stream.

Series [3] deals with canine spontaneous B-cell lymphoma. In words: Study of canine spontaneous B-cell lymphoma. It is filed as in vivo, dogs. The conditions noted are these: 2.5 mg/kg once daily oral. The text has this: Formula (II) is currently being evaluated in an ongoing study of canine spontaneous B-cell lymphoma. […] To date, partial remission (PR), per Veterinary Cooperative Oncology Group criteria for assessment of response in peripheral nodal lymphoma, has been observed in 2 of 6 dogs. D. M. Vali, et al., Vet. Comp. Oncol. 8, 28-37 (2010). […] L. A. Honigberg, et al., Proc. Nat. Acad. Sci. USA, 107, 13075-13080 (2010).

The test system of series [4] is 80 known pharmacologic targets such as G-protein-coupled receptors, nuclear receptors, proteases, and ion channels. Briefly: Binding assays with 80 known pharmacologic targets. The conditions noted are these: screened at 10 μM.
For series [5], the system named is EGFR phosphorylation. In words: In vitro EGFR phosphorylation in A431 cells. Type of series: cell-based. As to conditions: 10 μM, A431 human epidermoid cancer cell line.
Series [6] is described as follows: GLP functional observation battery in rats. Type of series: in vivo. As to conditions: doses through 300 mg/kg. The source says: (§1) Formula (II) was well tolerated in standard in vivo Good Laboratory Practices (GLP) studies of pharmacologic safety.
Series [7] can be described thus: Study of respiratory function in rats. The conditions noted are these: doses through 300 mg/kg. Type of series: in vivo.
Description: as §1

Series [8] can be described thus: Cardiovascular function study in awake telemeterized beagle dogs. The conditions noted are these: male beagle dogs, single doses through 30 mg/kg. Type of series: in vivo.
Description: as §1

Series [9] deals with CYP3A4 (Homo sapiens, UniProt P08684). In words: In vitro loss of parent drug as catalyzed by CYPs. It is filed as in vitro ADME.
Sequence of CYP3A4 (P08684 whole entry): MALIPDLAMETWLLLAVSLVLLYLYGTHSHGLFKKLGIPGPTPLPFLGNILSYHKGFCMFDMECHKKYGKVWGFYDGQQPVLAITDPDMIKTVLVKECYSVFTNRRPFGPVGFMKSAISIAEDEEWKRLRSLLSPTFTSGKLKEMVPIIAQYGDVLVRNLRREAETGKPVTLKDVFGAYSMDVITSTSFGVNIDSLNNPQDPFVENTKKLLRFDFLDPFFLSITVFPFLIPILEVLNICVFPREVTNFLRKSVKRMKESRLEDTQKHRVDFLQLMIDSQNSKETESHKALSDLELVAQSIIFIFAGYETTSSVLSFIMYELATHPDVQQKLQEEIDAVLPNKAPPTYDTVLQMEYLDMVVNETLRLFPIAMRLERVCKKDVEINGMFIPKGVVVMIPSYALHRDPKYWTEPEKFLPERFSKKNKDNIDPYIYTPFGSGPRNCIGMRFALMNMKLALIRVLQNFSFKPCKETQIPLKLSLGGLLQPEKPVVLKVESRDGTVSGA
Series [10] can be described thus: In vitro metabolism in hepatocytes with 14C-labeled compound. It is filed as in vitro ADME, mouse, rat, dog, rabbit, monkey, and human.
Series [11] is described as follows: Preliminary evaluation of metabolism in plasma, bile and urine. The conditions noted are these: bile, urine of rats, dogs, monkeys. It is filed as in vivo.
A short description of series [12]: Glutathione binding and depletion in vitro.
For series [13], the system named is CYP enzymes. Briefly: Nonclinical CYP interaction studies. Type of series: in vitro ADME.
Series [14] relates to NK cells and monocytic MDSC subsets. In words: Flow cytometry of peripheral blood cell subsets in CLL patients. Type of series: in vivo, human. The conditions noted are these: patients with falling ALC counts, 28 days of dosing. How it is done: PBMCs were stained with monoclonal antibodies conjugated to fluorescent tags (flourochromes) to identify cell subsets via flow cytometry. Non-viable cells were excluded from the analysis using the dye 7-aminoactinomycin D (7-AAD). To produce the metric of percent change, the following steps were taken. First, each cell subset was defined by hierarchical flow cytometry gating. Then, the change in frequency (between day 1 and day 28) was calculated for each cell subset. MDSC subsets were measured as a % of all myeloid cells. T cell subsets were measured as a % of all CD3^+ cells, and NK cells were measured as a % of all live CD45^+ cells. […] A cycle is 28 days. A trend is observed wherein patients with decreasing ALC % had increasing MDSC (monocytic) %. This may include patients who had quickly resolving lymphocytosis and those with no initial lymphocytosis. […] This may include patients who had quickly resolving lymphocytosis and those having no initial lymphocytosis. The effects in FIG. 9 to FIG. 12 are observed in multiple cohorts, at doses including 100 mg BID, 200 mg QD, and 400 mg QD. In FIG. 13 and FIG. 14, the effects on NK cells and MDSC cells are compared to a number of other markers versus % change in ALC at C1D28 and C2D28. These other markers include CD4+ T cells, CD8+ T cells, CD4+/CD8+ T cell ratio, NK-T cells, PD-1+CD4+ T cells, and PD-1+CD8+ T cells. […]

In series [15] the test system is platelet collagen receptor glycoprotein VI (GPVI). In words: GPVI (convulxin-induced) platelet aggregation. Type of series: cell-based, human. The conditions noted are these: for inhibition of GPVI platelet aggregation: FIG. 16 and FIG. 17. Here is the method:
GPVI platelet aggregation was measured for Formula (II) and ibrutinib. Blood was obtained from untreated humans, and platelets were purified from […] by centrifugation. Cells were resuspended to a final concentration of 350,000/μL in buffer containing 145 mmol/L NaCl, 10 mmol/L HEPES, 0.5 mmol/L Na2HPO4, 5 mmol/L KCl, 2 mmol/L MgCl2, 1 mmol/L CaCl2, and 0.1% glucose, at pH 7.4. Stock solutions of […] were prepared on the day of experimentation and added to platelet suspensions 5 minutes (37° C., 1200 rpm) before the induction of aggregation. Aggregation was assessed with a Chronolog Lumi-Aggregometer (model 540 VS; Chronolog, Havertown, Pa.) and permitted to proceed for 6 minutes after the addition of agonist. The results are reported as maximum percent change in light transmittance from baseline with platelet buffer used as a reference.
In FIG. 17, the results of CVX-induced (250 ng/mL) human platelet aggregation results before and 15 minutes after administration of the BTK inhibitors to 6 healthy individuals are shown.

The subject of series [16] is NK cells. In words: Antibody-dependent NK cell degranulation, CD107a flow cytometry. Type of series: cell-based, human. The conditions noted are these: rituximab-coated DHL-4 target cells.
The test system of series [17] is Th17 cells. Briefly: CD4+ T cell skewing culture, Th17. Type of series: cell-based. As to conditions: FIG. 24. How it is done: (§2) Enriched CD4^+ T cells are plated on 24-well culture dishes that have been precoated 2 hr with 250 μL anti-TCRP3 (0.5 μg/mL) plus anti-CD28 (5 μg/mL) at 37° C. in PBS. The cells are then supplemented with media containing BTK inhibitors along with the skewing cytokines as indicated in the following. The Th17 and Treg cultures are grown for 4 days before analysis. The cells are maintained for an additional 3 days with skewing cytokines (Th17; 20 ng/mL IL-6, 0.5 ng/mL TGF-β, […] Treg; 0.5 ng/mL TGF-β, 5 μg/mL IL-4, 5 μg/mL IFN-γ) and are supplemented with IL2 as a growth factor.

For series [18], the system named is regulatory T cell (Treg) development. Briefly: CD4+ T cell skewing culture, Treg. Type of series: cell-based. The conditions noted are these: FIG. 25. How it is done:
as §2

In series [19] the test system is relapsed/refractory CLL.
Series [20] concerns Raji cells. Briefly: Rituximab ADCC 51Cr release, healthy donor NK cells vs Raji cells. Type of series: cell-based, human. As to conditions: 1 μM, E:T 25:1.
Series [21] deals with canine spontaneous B-cell lymphoma. The conditions noted are these: out of 8 dogs treated; Honigberg et al. 2010; cited from earlier work.
For series [22] the following is noted: within the tested dose range; cited from earlier work.

Usually IC50 stands for the concentration that inhibits the measured activity by half. Low values mean inhibition by little substance, high ones a need for much substance.

Turning to `C=CC(=O)Nc1cccc(Nc2nc(Nc3ccc(OCCOC)cc3)ncc2F)c1` [CC-292, N-(3-((5-fluoro-2-((4-(2-methoxyethoxy)phenyl)amino)pyrimidin-4-yl)amino)phenyl)acrylamide, reference compound], in [1], the “effect on human platelet-mediated thrombus formation” value is on record as “effect similar to ibrutinib”.

As to `CC#CC(=O)N1CCC[C@H]1c1nc(-c2ccc(C(=O)Nc3ccccn3)cc2)c2c(N)nccn12` [Formula (II), (S)-4-(8-amino-3-(1-(but-2-ynoyl)pyrrolidin-2-yl)imidazo[1,5-a]pyrazin-1-yl)-N-(pyridin-2-yl)benzamide], the “in vivo potency at inhibiting expression of activation markers CD69 and CD86” value in series [2] is on record as “more potent at inhibiting expression of activation makers than ibrutinib”. In addition, the drug-related adverse events result in series [3] is “No drug-related adverse events”. Besides, the “partial remission (PR)” value in series [3] (average 22 days, preliminary) is given as 2 of 6. The “activity in binding screen of 80 targets” value in [4] was “significant activity only against the A3 adenosine receptor”. In addition, in [5], the “inhibition of in vitro EGFR phosphorylation” value is given as “no inhibition”. In addition, in series [6], the “neurobehavioral effects or body temperature” value is “no adverse effects”. Further, the respiratory function entry in series [7] is reported as “no treatment-related adverse effects”. In series [8], the “body temperature, cardiovascular, or ECG (including QT interval) parameters” value was “no meaningful changes”. Also, the “CYP responsible for metabolism” value in series [9] is reported as “metabolized by CYP3A4”. Moreover, the unique human metabolite entry in series [10] (hepatocytes) is reported as “No unique human metabolite was identified”. Moreover, the metabolites in hepatocytes entry in [10] (mouse, rat, dog, rabbit, monkey, human hepatocytes) was “two mono-oxidized metabolites and a glutathione conjugate”. For the same molecule, the metabolic processes entry in series [11] was “oxidation, glutathione binding, and hydrolysis”. Further, in [12], the “glutathione binding / depletion” value is “binds to glutathione but does not deplete glutathione”. The “drug-drug interaction potential via CYP enzymes” value in series [13] was “very unlikely to cause clinical drug-drug interactions”. Moreover, in series [14], the “frequency of NK cells and monocytic MDSC subsets in peripheral blood” value is “increase in frequency in the peripheral blood”. In series [1], the “effect on human platelet-mediated thrombus formation” value is “no significant effect”. In [15], the “inhibition of GPVI platelet aggregation” value is recorded as “does not”. The midpoint of inhibition in series [15] (Homo sapiens, Platelet, FIG. 16), the IC50, lay at 1.15 µM. The “reduction of rituximab-stimulated NK cell degranulation” value in series [16] is recorded as under 2%. The “effect on Th17 cells” value in series [17] is listed as “no adverse effect”. Moreover, in series [18], the “effect on Treg development” value is “no adverse effects; also recorded: no effect”. In addition, in series [19] (All (N = 44)), the “Grade of Diarrhea” value came out at 1, the “Grade of Headache” value is on record as “½”, the “Grade of Increased tendency to bruise” value is given as 1 and the “Grade of Petechiae” value was found to be 1. For the same molecule, in series [19] (All (N = 44)), the “Treatment-related adverse event: Diarrhea” value is given as 4 (9) n (%), the “Treatment-related adverse event: Headache” value is recorded as 7 (16) n (%), the “Treatment-related adverse event: Increased tendency to bruise” value was 6 (14) n (%) and the “Treatment-related adverse event: Petechiae” value is 3 (7) n (%). Moreover, in series [19] (Kaplan-Meier, Log-Rank p-value 0.0206), the “progression-free survival (PFS) in comparison to ibrutinib” value is “An improvement in survival and a reduction in risk”. Moreover, in [19] (relapsed/refractory CLL), the MTD result is “not reached”, the “dose-limiting toxicities (DLTs)” value is “No DLTs were observed”, the “grade of AEs observed” value is reported as “only grade 1 AEs were observed” and the lymphocytosis result was “A lack of lymphocytosis”. For the same molecule, the “treatment-related serious adverse events (SAEs)” value in series [19] (relapsed/refractory CLL) was “No treatment-related serious adverse events (SAEs) were observed”. The “progression in patients with 17p deletion” value in [19] (to date) was “no 17p patients have progressed”.

For `C=CC(=O)N1CCC[C@@H](n2nc(-c3ccc(Oc4ccccc4)cc3)c3c(N)ncnc32)C1` [Ibrutinib, 1-[(3R)-3-[4-amino-3-(4-phenoxyphenyl)-1H-pyrazolo[3,4-d]pyrimidin-1-yl]piperidin-1-yl]prop-2-en-1-one, reference compound], in series [15], the “inhibition of GPVI platelet aggregation” value is “significantly inhibits GPVI platelet aggregation”. In addition, the “effect on rituximab-mediated ADCC against Raji cells” value in series [20] is listed as “strongly inhibited”. Also, the “effect on Th17 cells” value in series [17] was “profound inhibition of Th17 cells; also recorded: strongly inhibits Th17 cells”. For the same molecule, the “effect on Treg development” value in [18] is given as “increase in Treg development; also recorded: strongly increases Treg development”. Moreover, the “dogs with PR” value in series [21] is listed as 3 dogs. The “maximum tolerated dose (MTD)” value in series [22] is “No maximum tolerated dose (MTD) was apparent”.
